US8841264B2, “Compositions” (DSM IP Assets B.V., priority 2006, dated 2014)
Read-outs that look alike come from different tables or passages of the source.

Columns and labels:
[1] = tested on: nitric oxide production in RAW267.7 macrophages; experiment: Inhibition of nitric oxide production in LPS-activated macrophages (Griess reaction); format: cell-based, murine; conditions: for % inhibition of NO production / inhibition at 12.5 µM: 12.5 μmol/L; for inhibition at 3.13 µM: 3.13 μmol/L; for inhibition at 3.125 µM: 3.125 μmol/L
Method: (§1) The anti-inflammatory effects combinations of OH-tyrosol or oleuropein and representatives of other groups of natural substances (isoflavones, catechins, phtalides, hydroxylated biphenyls) were evaluated in activated macrophages by determining the inhibition of the synthesis of nitric oxide and/or pro-inflammatory prostaglandins (PG). PGE2 plays a critical role in the inflammation process, while nitric oxide (NO) is a hallmark of inflammation in various chronic inflammatory diseases including various forms of arthritis, gastro-intestinal diseases and metabolic syndrome.
(§2) The anti inflammatory effect of compounds was tested in cellular assays using a murine macrophage indicator cell line, RAW267.7, which was purchased from American Type Culture Collection, (ATCC) and cultured in DMEM according to the protocol provided by ATCC. Cells (˜50,000/well) were seeded into flat-bottomed microtiter plates and cultured for one day. Cells were then starved in complete medium containing 0.25% FCS (D-025). After overnight culture, medium was removed and replaced by 100 μL of D-025 containing the test compounds at twice the final concentration. Subsequently, 100 μL of D-025 containing 2 μg/ml LPS was added (i.e. final LPS concentration of 1 μg/ml) and the cells cultured for 24 hours. Substances were usually tested in a concentration range from 0.2 to 50 μM (or μg/ml in the case of extracts) in two-fold dilution steps. Concentrations of nitrite which was generated from nitric oxide released by cells were determined by the Griess reaction using sodium nitrite as standard (see e.g Imai et al. Biochem Biophys Res Comm, 197, 105 [1993]). Briefly, 50 μl of supernatant was mixed with Griess reagent 1 (25 μL) and Griess reagent 2 (25 μL), centrifuged and the optical density at 540 nm determined. PGE2 secreted into the cell culture medium was determined by EIA obtained from Cayman Chemicals ([…]) and used according to the manufacturer's instructions. IC50 values were calculated using a […] least-square fitting equation [y=A+((B−A)/(1+((C−x)^D))] for best-fit curves (Excel fit software program).
(§3) In a methodological approach that was similar to that described for Example 1, the synergistic effect of lycopene, resveratrol and OH-tyrosol was tested on the inflammatory response. Dose-dependent effects of each substance on the production of nitric oxide or PGE2 in macrophages were determined.

[2] = tested on: PGE2 production in RAW267.7 macrophages; experiment: Inhibition of PGE2 production in LPS-activated macrophages (EIA); format: cell-based, murine
Method: as §1, §2, §3

[3] = Mus musculus, Macrophage, Example 2, read-out: % inhibition of NO production
[4] = Mus musculus, Macrophage, Example 2, read-out: IC50 of pure compound (NO production)
[5] = Mus musculus, Macrophage, single substance, RAW267.7, LPS 1 μg/ml, 24 hours, read-out: IC50 Nitric Oxide
[6] = Mus musculus, Macrophage, Example 2, read-out: IC50 of pure compound (PGE2 production)
[7] = Mus musculus, Macrophage, single substance, RAW267.7, LPS 1 μg/ml, 24 hours, read-out: IC50 PGE2
[8] = Mus musculus, Macrophage, read-out: % inhibition of NO production

Row | Compound | IC50 [1, 4] | IC50 [1, 5] | IC50 [2, 6] | IC50 [2, 7] | inhibition at 12.5 µM [1, 8] | further results
1 | C/C=C1/[C@H](O[C@@H]2O[C@H](CO)[C@@H](O)[C@H](O)[C@H]2O)OC=C(C(=O)OC)[C@H]1CC(=O)OCCc1ccc(O)c(O)c1 [Oleuropein, oleuropein] |  | 52 ± 5 µM |  | 60 ± 10 µM | 8% | inhibition at 3.125 µM [1, 8]: 2%
2 | Oc1ccc(/C=C/c2cc(O)cc(O)c2)cc1 [Resveratrol, (trans)-resveratrol] | 19.3 µM | 31 ± 2 µM | 23.4 µM | 24 ± 2 µM |  | inhibition at 3.13 µM [1, 3]: -2%
3 | O=c1c(-c2ccc(O)cc2)coc2cc(O)cc(O)c12 [Genistein, 4′,5,7-trihydroxyisoflavone] |  | 37 ± 2 µM |  | 4.6 ± 0.6 µM |  | inhibition at 25 µM ([1]; Mus musculus, Macrophage, 25 μmol/L, read-out: % inhibition of NO production): 40%
4 | CC(C)=CCC/C(C)=C/C=C/C(C)=C/C=C/C(C)=C/C=C/C=C(C)/C=C/C=C(C)/C=C/C=C(\C)CCC=C(C)C [Lycopene (Ly), ψ,ψ carotene] | > 8 µM |  | > 8 µM |  |  | inhibition at 0.5 µM ([1]; Mus musculus, Macrophage, Example 2, 0.5 μmol/L, read-out: % inhibition of NO production): 4%; anti-inflammatory effect (production of nitric oxide or PGE2 in macrophages) ([1]; at <8 μmol/L): no anti-inflammatory effect; inhibition at 0.25 µM ([2]; Mus musculus, Macrophage, Example 2, 0.25 μmol/L): -5%
5 | (−)-epigallocatechin gallate [EGCG] |  |  |  |  |  | % inhibition of NO production [1]: 12%; IC50 ([1]; single substance, RAW267.7, LPS 1 μg/ml, 24 hours, read-out: IC50 Nitric Oxide): 33 ± 2 µM; IC50 ([2]; single substance, RAW267.7, LPS 1 μg/ml, 24 hours, read-out: IC50 PGE2): 35 ± 3 µM

Further lines, with some results ahead:

Row | IC50 [1, 4] | IC50 [1, 5] | IC50 [2, 6] | IC50 [2, 7] | Compound | inhibition at 12.5 µM [1, 8] | further results
6 | 24.1 µM | 28 ± 2 µM | 22.7 µM | 24 ± 3 µM | OCCc1ccc(O)c(O)c1 [OH-Tyrosol, 2-(3,4-dihydroxyphenyl)-ethanol] |  | % inhibition of NO production [1]: 33%; inhibition at 6.25 µM ([1]; Mus musculus, Macrophage, 6.25 μmol/L, read-out: % inhibition of NO production): 7%; inhibition at 3.13 µM [1, 3]: -4%
7 |  | 15 ± 1 µM |  | 10 ± 2 µM | CCC/C=C1\OC(=O)C2=C1CCC=C2 [Ligustilide, ligustilide] | 38% | inhibition at 3.125 µM [1, 8]: 28%
8 |  | 8 ± 1 µM |  | 1 ± 0.2 µM | C=CCc1ccc(O)c(-c2ccc(O)c(CC=C)c2)c1 [Honokiol, 3′,5-Diallyl-2,4′-biphenyldiol] | 66% | 
